Results as given in publication PMC8667944 (Journal of Enzyme Inhibition and Medicinal Chemistry, 2021).

The compounds below were run against T1, NgCA (Neisseria gonorrhoeae, UniProt Q50940) (assay: stopped-flow CO2 hydration assay). Conditions: not given.
T1 construct: gene cah; recombinant enzyme obtained in-house
T1 sequence (Q50940 27-252): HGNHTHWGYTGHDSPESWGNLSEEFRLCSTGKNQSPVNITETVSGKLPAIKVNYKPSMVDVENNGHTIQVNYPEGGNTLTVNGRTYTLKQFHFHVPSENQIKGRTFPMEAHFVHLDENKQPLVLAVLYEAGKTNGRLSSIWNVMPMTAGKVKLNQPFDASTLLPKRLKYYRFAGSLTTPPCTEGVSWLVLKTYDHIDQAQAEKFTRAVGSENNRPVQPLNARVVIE
Type: biochemical
Compound `S=C(S)N1CCCCC1` [compound 17, 17] has a Ki of 731 nM.
For `S=C(S)N1CCNCC1` [compound 28, 28], the Ki was 276 nM.

Same assay, conditions: read-out: Ki (nM)^a / NgCA
Work on `CC(C)(C)OC(=O)NC1CCCN(C(=S)S)C1` (stereo not drawn) [compound 6, 6] yielded a Ki of 538 nM.
`CC(=O)NC1CCCN(C(=S)S)C1` (stereo not drawn) [compound 15, 15] showed a Ki of 451 nM.
`O=C(O)C1CCCCN1C(=S)S` (stereo not drawn) [compound 7, 7] was tested, and the Ki was 827 nM.
With `CN(C)CCNC(=S)S` [compound 3, 3] the Ki was 568 nM.
For `OCCCNC(=S)S` [compound 5, 5], the Ki was 413 nM.
For `O=C(O)C1COCCN1C(=S)S` (stereo not drawn) [compound 18, 18], the Ki was 672 nM.
`CCCCN(CC)C(=S)S` [compound 27, 27] showed a Ki of 577 nM.
Work on `S=C(S)NCCc1ccccc1` [compound 2, 2] yielded a Ki of 259 nM.
`S=C(S)N[C@H]1CN2CCC1CC2` [compound 16, 16] was tested, and the Ki was 518 nM.
In the case of `O=C(CN1CCN(C(=S)S)CC1)NC1CCCCC1` [compound 20, 20], the Ki is reported as 84.4 nM.
For `CC(C)CN(CC(C)C)C(=S)S` [compound 22, 22], the Ki was 554 nM.
`NS(=O)(=O)c1ccc(CCNC(=S)S)cc1` [compound 1, 1] was tested, and the Ki was 83.7 nM.
`CN(Cc1ccccc1)C(=S)S` [compound 24, 24] was tested, and the Ki was 654 nM.
`CC1COCCN1C(=S)S` (stereo not drawn) [compound 19, 19] was tested, and the Ki was 723 nM.
`OCCCCNC(=S)S` [compound 4, 4] showed a Ki of 438 nM.
For `OC1CCCN(C(=S)S)C1` (stereo not drawn) [compound 10, 10], the Ki was 367 nM.
`OCCCCCNC(=S)S` [compound 21, 21] gave a Ki of 454 nM.
`O=C(O)[C@H]1CCCN(C(=S)S)C1` [compound 14, 14] was tested, and the Ki was 335 nM.
Compound `CCCCN(CCCC)C(=S)S` [compound 25, 25] has a Ki of 460 nM.
With `S=C(S)N1CCN(C(=S)S)CC1` [compound 29, 29] the Ki was 136 nM.
`CCCN(CCC)C(=S)S` [compound 26, 26] was tested, and the Ki was 522 nM.
For `N#CC1(c2ccccc2)CCN(C(=S)S)CC1` [compound 30, 30], the Ki was 365 nM.
`S=C(S)N[C@@H]1CN2CCC1CC2` [compound 11, 11] was tested, and the Ki was 473 nM.
`O=C(O)C1CCN(C(=S)S)CC1` [compound 8, 8] showed a Ki of 514 nM.
For `O=C(O)C1CCCN(C(=S)S)C1` (racemic) [compound 9, 9], the Ki was 297 nM.
`S=C(S)NC1CN2CCC1CC2` (racemic) [compound 12, 12] gave a Ki of 482 nM.
Work on `S=C(S)N1CCOCC1` [compound 23, 23] yielded a Ki of 483 nM.
In the case of `O=C(O)[C@@H]1CCCN(C(=S)S)C1` [compound 13, 13], the Ki is reported as 242 nM.
